Data published in US20030087830A1, “Low molecular weight components of cartilage, complexes of metals with amino acids, DI-peptides and analogs thereof; processes for preparation and therapeutic uses thereof” (priority 2001, published 2003).

How the values were obtained:
[1] = system: Lewis lung carcinoma clone M27; assay: Lewis Lung Carcinoma metastatic mouse model (LLC); format: in vivo, C57BL/10 female mice; conditions: 2.5 mg/kg, intraperitoneal daily for two weeks; lung surface metastases
Description: The Lewis Lung Carcinoma mouse model (LLC) was used to determine the ability of different test samples to inhibit the formation of metastases within the lung. The Lewis lung carcinoma clone M27, with a high metastatic potential to the lung, was established by Dr P. Brodt (Brodt P, Characterization of two highly metastatic variants of Lewis lung carcinoma with different organ specificities. Cancer Res., 46: 2442, 1986). This model is well established and is known for its predictive correlation between in vitro and in vivo activity. Briefly, LLC cells were transplanted subcutaneously in the axillary region of the right flank of C57BL/10 female mice (Charles River Inc.) When the primary tumor reached a size of 0.5-1.0 cm^3 (day 10 post-inoculation), the tumor was carefully separated from the surrounding healthy tissues. Treatment with different test samples started the day following tumor removal (day 11 post-inoculation). Saline or different test samples were administered daily for two weeks by intraperitoneal injection (0.2 ml of each dose). As previous experiments had shown that a period of approximately two weeks after removal of the primary tumor was sufficient to obtain an average of 30 to 50 nodules on the lung surface, animals were sacrificed in a CO2 chamber two weeks later. Following autopsy, both lungs were removed, weighed and fixed in 10% Bouin's fixative. Lung surface metastases were counted using a stereomicroscope (4×).

Endothelial cells = assay: Endothelial cell tubule formation assay (tubulogenesis); format: cell-based; parameters: key to Tubulogenesis: 0: Numerous capillary-like tube forming pentagonal network; +: Decrease of capillary-like tubes; ++: Dramatic decrease of capillary-like tubes; +++: Absence of capillary-like tubes
Procedure: The endothelial cell tubule formation assay is a semi-quantitative assay that was performed to determine the ability of test samples to inhibit this multi-step process, which involves cell adhesion, migration, differentiation and growth, using a commercial kit (Chemicon). Briefly, endothelial cells were seeded on solid gel of Ecmatrix™ (Chemicon), basement proteins prepared from the Engelbreth Holm-Swarm (EHS) mouse tumor in microplate in a E-99 media (Sigma) supplemented with 5% FBS and VEGF (50 ng/ml) in the presence or absence of the test sample. Cells were incubated for a period of 24 hours at 37° C. Pictures were taken on the entire tissue culture dish using a binocular microscope for further evaluation.

[2] = system: Endothelial cells (HUVEC, BAEC); assay: Endothelial cell proliferation; format: cell-based, human / bovine; conditions: 48 hours; copper equivalent; NA = less than 50% at 1.25 mM copper equivalent; read-out: EC proliferation (EC50 mM)
Procedure: (§1) Endothelial and tumor cell proliferation assays were performed to determine the ability of test samples to inhibit endothelial cell proliferation (antiangiogenic activity), normal cell proliferation,and tumor cell proliferation.
(§2) Endothelial cells (Human umbilical vein endothelial cells (HUVEC), bovine aortic endothelial cells (BAEC)), skeletal muscle cells, human dermal fibroblasts (all from Clonetics, Walkersville, Md.) were respectively maintained in EBM-2, MDEM, SKGM and FGFM-2 complete media according to manufacturer's instructions. Tumor rat glioblastoma cell line (C6) was maintained in DMEM (Sigma, Oaksville, Ontario) supplemented with 10% fetal calf serum (FCS) and antibiotics in 5% CO2. Briefly, cells seeded in 96-well sterile tissue culture dishes were treated with increasing concentrations of different test samples for a period of 48 hours at 37° C. Cell number was then evaluated by a calorimetric assay using the cell proliferation reagent tetrazolium salt and the fluorimetric assay using DNA dye (Hoescht) according to the procedure established by the manufacturer (Boehringer Mannhein). The conversion of these tetrazolium salts into formazan occurs only in metabolically active cells. The percentage of cell inhibition was determined by comparison to untreated cells.
According to the endothelial cell proliferation assay, the relative effectiveness of two compounds is compared by reference to the EC50 thereof. The EC50 is the concentration of compound at which the number of endothelial cells is reduced by 50% as compared to control. The efficacy of the test samples in EVT is established by the percent of eggs with altered angiogenesis at a given inhibitor dose of 0.6 mg of copper equivalent (see FIG. 6 for examples). A comparison of the antiangiogenic activity of the compounds of the present invention with divalent metal salts (CuCl2, MgCl2, ZnCl2, CoCl2) and uncoupled alpha-amino acids, alpha-imino acids, dipeptides, and nitrogenated molecules comprising a carboxylic acid group, such as creatine, is provided to illustrate that the formation of the amino acid-copper complex gives rise to complexes having antiangiogenic activity.

C6 glioblastoma cells = assay: C6 glioblastoma cell proliferation; format: cell-based, rat; conditions: 48 hours; free amino acids and Glu-Trp 2.5 mM, CuCl2 1.25 mM
Procedure: as §1, §2

[3] = system: Striated muscle cells (skeletal muscle cells); assay: Striated muscle cell proliferation; format: cell-based; conditions: 48 hours; free amino acids and Glu-Trp 2.5 mM, CuCl2 1.25 mM
Procedure: as §1, §2

[4] = Affinity of the amino acid with copper; format: physicochemical

In the case of L-Asp Cu L-Asp [Compound 6], the “Antimetastatic activity (% inhibition) (at 2.5 mg/kg of Cu-complex)” value [1] is reported as 26.9%, the “Tubulogenesis activity (in words)” value (Endothelial cells) is reported as “important activity” and the “Tubulogenesis (in words)” value (Endothelial cells; 1.25 mmole (equivalent copper), 24 hours) is reported as “Decrease of capillary-like tube formation”. The Tubulogenesis (Endothelial cells; copper complexes, concentration not given, VEGF 50 ng/ml, 24 hours) was “+”, the EC50 [2] was 0.29 mM and the “C6 glioblastoma (EC50 (mM))” value (C6 glioblastoma cells) was “Non-active”. For the same substance, the “Striated muscle (EC50 (mM))” value [3] was “Non-active” and the “Affinity of the AA with Cooper” value [4] was 16.0.
